From patent publication US11505592B2, “Diagnosis and therapy of multiple sclerosis” (PRINDEX S.R.L., priority 2015, dated 2022)

Columns and labels:
MS IgG = test: Indirect ELISA of MS IgG binding to receptor peptides; set-up: species or system human; settings: 100 μM peptide; 200 μg immunoglobulins
Experimental: FIG. 6: Dose-response curves of the interaction between MS sera and DDSK peptide. (A) Sera of Multiple Sclerosis patients and Control (control group is defined in material and method below) (200 μg) were incubated with different concentrations (50-100-250 μM) of peptide DDSK. For the detection, inventors used a secondary antibody anti human IgG conjugated with HRP and (3,3′,5,5′-Tetramethylbenzidine) TMB solution that was added for each well and incubated for 15-30 min. Equal volume of stopping solution (2 M H2SO4) was added to the plate and absorbance (optical density) of plate was read at 450 nm. The statistical analysis derived from 9 experiments. Values are mean±SEM. *P<0.05 MS vs CTRL (B) Linear representation of dose-response curve Values are mean±SEM. *P<0.05 MS vs CTRL.
FIGS. 7A, 7B, 7C and 7D: MS sera recognize specially receptor's peptides. […] Equal volume of stopping solution (2 M H2SO4) was added to the plate and absorbance (optical density) of plate was read at 450 nm. […]
A. Sera of Multiple Sclerosis patients and Control (200 μg) were incubated in absence (uncoated) or presence of 100 μM of DDSK peptide. […] Equal volume of stopping solution (2 M H2SO4) was added to the plate and absorbance (optical density) of plate was read at 450 nm. […]
Diluted peptide (20 μg/ml) was coated to the wells of a PVC microtiter plate and incubated at 4° C. overnight. […] For the detection, we used a secondary antibody anti human (recognized constant region of the patient antibody conjugated with HRP and (3,3′,5,5′-Tetramethylbenzidine) TMB solution that was added for each well and incubated for 15-30 min. Equal volume of stopping solution (2 M H2SO4) was added to the plate and absorbance (optical density) of plate was read at 450 nm.
To evaluate the peptide concentration to use for ELISA assay we performed a dose-response curve. […] (named DDSK in the figures) and the absorbance (optical density) of plate was read at 450 nm. […]

CTRL sera = test: PEPSCAN-based ELISA, binding of control (CTRL) sera to library peptides; set-up: species or system human; settings: ELISA binding value, CTRLs n = 10
Source text: (§1) The linear and CLIPS peptides are synthesized based on the amino acid sequence of the target protein using standard Fmoc-chemistry and deprotected using […] with scavengers. The constrained peptides are synthesized on chemical scaffolds in order to reconstruct conformational epitopes, using Chemically Linked Peptides on Scaffolds (CLIPS) technology (Timmerman et al. (2007). For example, the single looped peptides are synthesized containing a dicysteine, which was cyclized by treating with alpha, alpha′-dibromoxylene and the size of the loop is varied by introducing cysteine residues at variable spacing. If other cysteines besides the newly introduced cysteines are present, they are replaced by alanine. The side-chains of the multiple cysteines in the peptides are coupled to CLIPS templates by reacting onto credit-card format polypropylene PEPSCAN cards (455 peptide formats/card) with a 0.5 mM solution of CLIPS template such as 1,3-bis (bromomethyl) benzene in ammonium bicarbonate (20 mM, pH 7.9)/acetonitrile (1:1(v/v)). The cards are gently shaken in the solution for 30 to 60 minutes while completely covered in solution. Finally, the cards are washed extensively with excess of H2O and sonicated in distrupt-buffer containing 1 percent SDS/0.1 percent beta-mercaptoethanol in PBS (pH 7.2) at 70° C. for 30 minutes, followed by sonication in H2O for another 45 minutes.
(§2) The binding of antibody to each peptide is tested in a PEPSCAN-based ELISA. The 455-well credit card format polypropylene cards containing the covalently linked peptides are incubated with primary antibody solution for example consisting of 1/1000 diluted serum in blocking solution, for example 4% horse serum, 5% ovalbumin (w/v) in PBS/1% Tween. After washing, the peptides are incubated with a 1/1000 dilution of antibody peroxidase conjugate for one hour at 25° C. After washing, the peroxidase substrate 2,2′-azino-di-3-ethylbenzthiazoline sulfonate (ABTS) and 2 microlitres of 3 percent H2O2 are added. After one hour, the color development are measured. The color development are quantified with a charge coupled device (CCD)-camera and an image processing system (Slootstra et al., 1996).
(§3) The raw data are optical values obtained by a CCD-camera calibrated to export absorption values compatible with a standard 96-well plate ELISA-reader. First the CCD-camera makes a picture of the card before peroxidase coloring and then again a picture after the peroxidase coloring. These two pictures are substracted from each other yielding a binding value for each peptide.
(§4) All peptides have been synthesized in a peptide array format and the binding of 20 different sera to all peptide libraries were measured in an ELISA based set up following the procedure described in detail in the method section “Peptide synthesis and screening assays”. In particular 2 sets of experiments were performed on the 2 libraries by using 2 different dilutions of the human patients sera. In the first set of experiment the 20 sera were used at 1:2500 dilutions, while in the second experiment the dilution of the sera was 1:1000. The binding of the different sera to all peptides was quantified and analyzed in detail (Tables 1 and 2, FIGS. 15A, B, C, D and […]

MS sera = test: PEPSCAN-based ELISA, binding of MS sera to library peptides; set-up: species or system human; settings: ELISA binding value, MS sera n = 9
Source text: as §1, §2, §3, §4

MO3-13 cells = test: Determination of reactive oxygen species (DCF fluorescence) in MO3-13 cells; format: cell-based, human; settings: 50 μM peptide 30 min, then 200 μg/ml IgG MS 30 min
Experimental: (§5) FIG. 10A: DDSK peptide reverts the effects of Ig from MS patients on ROS levels in MO3-13 cells. MO3-13 cells were grown to semi-confluence in 24 multiwell plates and incubated for 18 h in medium containing 0.2% FBS. The cells were washed twice with FBS free medium, incubated with 50 μM of DDSK for 30 min and then with 200 μg/ml of IgG from Control (IgGCtr) or MS (IgGMS) patients for 30 min. Then, the cells were incubated with 10 μM DCHF-DA for 10 min, washed three times and DCF fluorescence was measured using a plate reader fluorometer. The histograms show the mean+/−SEM values obtained in 5 different experiments from 7 control and 7 MS subjects. # p<0.05 vs IgGCtr; *p<0.05 vs IgGMS.
as §5, with “MO3-13” for “FIG. 10A: DDSK peptide reverts the effects of Ig from MS patients on ROS levels in MO3-13 cells. MO3-13”, “Scrambled peptide (Sc)” for “DDSK”, “obtained” for “obtained in 5 different experiments”, “3” for “7”, “subjects.” for “subjects. # p<0.05 vs IgGCtr;”, “IgGCtr.” for “IgGMS.”
ROS levels were determined using the membrane-permeant fluorogenic probe 5,6-carboxy-2′,7′-dichlorofluoresceindiacetate, DCHFDA (Molecular Probes, Leiden, the Netherlands). The assay was based on the fluorescence detection of dichlorofluorescein (DCF), formed by ROS-mediated oxidation of the non-fluorescent precursor, dichlorofluorescin.
MO3-13 cells were grown to semi-confluence in 24 multiwell plates (45000 cell/well) and incubated for 18 h in medium containing 0.2% FBS before the experiments. […] DCF fluorescence was measured using the plate reader Fluoroskan Ascent FL fluorometer (Thermo Electron Oy, Vantaa, Finland) and data analyzed by Ascent software.

LYGYRWPLPSKL was tested. Which “binding of MS IgG to peptide respect to scrambled” value (MS IgG) did it give?
The value was “bind specifically”.

With NESYLNFARKRIKNP [SEQ ID NO: 109] as the sequence, how does the “MEAN CTRL” value (CTRL sera; NOX2 library) read?
Its value is 333.75.

And the “MEAN MS” value (MS sera; NOX2 library)?
Its value is 602.889.

How did the “MEAN CTRL” value (CTRL sera; NOX2 library) turn out when NFARKRIKN [SEQ ID NO: 58] was run?
The value was 288.95.

What about the “MEAN MS” value (MS sera; NOX2 library) of the same sequence?
Its value is 613.833.

Which “MEAN CTRL” value (CTRL sera; NOX2 library) does the source give for NFARKRIKNPAAGLY [SEQ ID NO: 77] here?
Its value is 323.85.

What about the “MEAN MS” value (MS sera; NOX2 library) of the same sequence?
Its value is 604.167.

What does the source list for NITVCEQKISAAGKI [SEQ ID NO: 96]?
MEAN CTRL (CTRL sera; NOX2 library): 314.2; MEAN MS (MS sera; NOX2 library): 564.500

What does the source list for QDDSKVFKEGAALLA [Peptide 33]?
MEAN CTRL (CTRL sera; 5HT2A receptor library): 263.70; MEAN MS (MS sera; 5HT2A receptor library): 439.11

Which results are given for QKISEWGKI [SEQ ID NO: 146]?
MEAN CTRL (CTRL sera; NOX2 library): 298.2; MEAN MS (MS sera; NOX2 library): 508.333

QKISEWGKIKAAPIP [SEQ ID NO: 88] was tested. Which “MEAN CTRL” value (CTRL sera; NOX2 library) did it give?
Its value is 364.3.

What about the “MEAN MS” value (MS sera; NOX2 library) of the same sequence?
The value was 701.889.

With QNESYLNFARAAIKN [SEQ ID NO: 113] as the sequence, how does the “MEAN CTRL” value (CTRL sera; NOX2 library) read?
Its value is 244.

What about the “MEAN MS” value (MS sera; NOX2 library) of the same sequence?
Its value is 421.722.

Which “MEAN CTRL” value (CTRL sera; NOX2 library) does the source give for QNESYLNFARKRIKN [SEQ ID NO: 63] here?
Its value is 309.65.

What about the “MEAN MS” value (MS sera; NOX2 library) of the same sequence?
Its value is 610.778.

For RQNESYLNFARKRIK [SEQ ID NO: 76], which “MEAN CTRL” value (CTRL sera; NOX2 library) is on record?
The value was 241.2.

What about the “MEAN MS” value (MS sera; NOX2 library) of the same sequence?
Its value is 458.833.

How did the “MEAN CTRL” value (CTRL sera; 5HT2A receptor library) turn out when STTNSLMQLNAATRL [Peptide 31] was run?
The value was 385.15.

What about the “MEAN MS” value (MS sera; 5HT2A receptor library) of the same sequence?
Its value is 611.83.

How did the “MEAN CTRL” value (CTRL sera; NOX2 library) turn out when SYLNFARKRIAAPEG [SEQ ID NO: 71] was run?
Its value is 259.75.

And the “MEAN MS” value (MS sera; NOX2 library)?
Its value is 472.000.

How did the “MEAN CTRL” value (CTRL sera; 5HT2A receptor library) turn out when TILYGYRWPLPSKLC [Peptide 29] was run?
The value was 378.20.

And the “MEAN MS” value (MS sera; 5HT2A receptor library)?
The value was 651.50.

What does the source list for TVCEQKISEWGKIKE [SEQ ID NO: 94]?
MEAN CTRL (CTRL sera; NOX2 library): 289.4; MEAN MS (MS sera; NOX2 library): 514.944

For TVDSENRTNLAAEGC [Peptide 23], which “MEAN CTRL” value (CTRL sera; 5HT2A receptor library) is on record?
The value was 348.10.

What about the “MEAN MS” value (MS sera; 5HT2A receptor library) of the same sequence?
Its value is 587.33.

With “TWYAHNCRLQ [Scrambled peptides, scrambled peptide used as negative control, reference compound]” as the sequence, how does the “effect of peptide preincubation on ROS levels of IgG MS treated cells” value (MO3-13 cells) read?
Its value is “did not influence”.

What does the source list for VNARVNNSDPAAVAL [SEQ ID NO: 118]?
MEAN CTRL (CTRL sera; NOX2 library): 219.15; MEAN MS (MS sera; NOX2 library): 426.444

For WCVNARVNNSDPYSV [SEQ ID NO: 121], which “MEAN CTRL” value (CTRL sera; NOX2 library) is on record?
Its value is 163.8.

And the “MEAN MS” value (MS sera; NOX2 library)?
Its value is 283.889.

Which “MEAN CTRL” value (CTRL sera; NOX2 library) does the source give for WGKIKECPI [SEQ ID NO: 116] here?
Its value is 303.25.

What about the “MEAN MS” value (MS sera; NOX2 library) of the same sequence?
The value was 501.389.

Which results are given for YLNFARKRI [SEQ ID NO: 140]?
MEAN CTRL (CTRL sera; NOX2 library): 345.85; MEAN MS (MS sera; NOX2 library): 601.667

What does the source list for YLNFARKRIKAAEGG [SEQ ID NO: 119]?
MEAN CTRL (CTRL sera; NOX2 library): 181.3; MEAN MS (MS sera; NOX2 library): 299.167

Which results are given for YRWPLPSKL [Peptide 5]?
MEAN CTRL (CTRL sera; 5HT2A receptor library): 285.70; MEAN MS (MS sera; 5HT2A receptor library): 566.00
